Source: PubChem BioAssay AID270 (DTP/NCI, 2004)
Values joined by “and” are separate entries in the source; they are usually repeats but may differ in a detail not shown here. Equal entries are not always repeated. Records with an inconclusive call do not appear.

Tested on: BDF1 mice, s.c. Lewis lung carcinoma, T/C %
Test: NCI In Vivo Anticancer Drug Screen. Data for tumor model Lewis Lung Carcinoma (subcutaneous) in B6D2F1 (BDF1) mice
How it was run: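 Tumor-bearing mice were treated with test compound, and either survival or tumor size was recorded. Values are the treated-group measurement divided by that of the vehicle-treated control group.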

[1] = endpoint: median survival time, dose: 12.5 mg/kg/injection, schedule: Q01DX009 (ip), vehicle: Klucel (hydroxypropylcellulose) (HPC), higher = longer survival
[2] = endpoint: median survival time, dose: 25.0 mg/kg/injection, schedule: Q01DX009 (ip), vehicle: Klucel (hydroxypropylcellulose) (HPC), higher = longer survival

SMILES: CC(=O)CC(=O)Nc1ccc(Cl)cc1
- T/C (endpoint: mean tumor weight, dose: 111.0 mg/kg/injection, schedule: Q01DX011 (ip), vehicle: other, higher = larger tumour): 151 % of control
- T/C (endpoint: mean tumor weight, dose: 166.0 mg/kg/injection, schedule: Q01DX011 (ip), vehicle: other, higher = larger tumour): 156 % of control
- T/C (endpoint: mean tumor weight, dose: 250.0 mg/kg/injection, schedule: Q01DX011 (ip), vehicle: other, higher = larger tumour): 121 % of control
- T/C (endpoint: mean tumor weight, dose: 500.0 mg/kg/injection, schedule: Q01DX011 (ip), vehicle: other, higher = larger tumour): 64 % of control

SMILES: Cc1nc(N)nc(N)c1-c1ccc(Cl)c(Cl)c1
- T/C (endpoint: mean tumor weight, dose: 0.9 mg/kg/injection, schedule: Q01DX011 (ip), vehicle: carboxymethylcellulose (CMC), higher = larger tumour): 80 % of control
- T/C (endpoint: mean tumor weight, dose: 1.3 mg/kg/injection, schedule: Q01DX011 (ip), vehicle: carboxymethylcellulose (CMC), higher = larger tumour): 89 % of control
- T/C (endpoint: mean tumor weight, dose: 2.0 mg/kg/injection, schedule: Q01DX011 (ip), vehicle: carboxymethylcellulose (CMC), higher = larger tumour): 92 % of control
- T/C (endpoint: mean tumor weight, dose: 2.0 mg/kg/injection, schedule: Q01DX011 (ip), vehicle: other, higher = larger tumour): 22 % of control
- T/C (endpoint: mean tumor weight, dose: 3.0 mg/kg/injection, schedule: Q01DX011 (ip), vehicle: carboxymethylcellulose (CMC), higher = larger tumour): 45 % of control
- T/C (endpoint: mean tumor weight, dose: 6.0 mg/kg/injection, schedule: Q01DX011 (ip), vehicle: other, higher = larger tumour): 4 % of control
- T/C (endpoint: median survival time, dose: 0.39 mg/kg/injection, schedule: Q01DX009 (ip), vehicle: saline, higher = longer survival): 96 % of control
- T/C (endpoint: median survival time, dose: 0.78 mg/kg/injection, schedule: Q01DX009 (ip), vehicle: saline, higher = longer survival): 108 % of control
- T/C (endpoint: median survival time, dose: 1.0 mg/kg/injection, schedule: Q02DX009 (ip), vehicle: Klucel (hydroxypropylcellulose) (HPC), higher = longer survival): 105 % of control
- T/C (endpoint: median survival time, dose: 1.56 mg/kg/injection, schedule: Q01DX009 (ip), vehicle: saline, higher = longer survival): 123 % of control
- T/C (endpoint: median survival time, dose: 2.0 mg/kg/injection, schedule: Q02DX009 (ip), vehicle: Klucel (hydroxypropylcellulose) (HPC), higher = longer survival): 108 % of control
- T/C (endpoint: median survival time, dose: 3.13 mg/kg/injection, schedule: Q01DX009 (ip), vehicle: saline, higher = longer survival): 112 % of control

SMILES: CC1(c2ccc(N(CCCl)CCCl)cc2)NC(=O)NC1=O (centres undefined)
- T/C [1]: 111 % of control
- T/C [2]: 91 % of control
- T/C (endpoint: median survival time, dose: 50.0 mg/kg/injection, schedule: Q01DX009 (ip), vehicle: Klucel (hydroxypropylcellulose) (HPC), higher = longer survival): 98 % of control
- T/C (endpoint: median survival time, dose: 100.0 mg/kg/injection, schedule: Q01DX009 (ip), vehicle: Klucel (hydroxypropylcellulose) (HPC), higher = longer survival): 115 % of control

SMILES: CC(=O)Nc1c(Cl)cc2c(c1Cl)Cc1cc([N+](=O)[O-])ccc1-2
- T/C (endpoint: mean tumor weight, dose: 20.0 mg/kg/injection, schedule: Q01DX011 (ip), vehicle: carboxymethylcellulose (CMC), higher = larger tumour): 55 % of control
- T/C (endpoint: mean tumor weight, dose: 40.0 mg/kg/injection, schedule: Q01DX011 (ip), vehicle: carboxymethylcellulose (CMC), higher = larger tumour): 32 % of control

SMILES: O=P(c1ccccc1)(N1CC1)N1CC1
- T/C (endpoint: mean tumor weight, dose: 11.0 mg/kg/injection, schedule: Q01DX011 (ip), vehicle: saline, higher = larger tumour): 65 % of control
- T/C (endpoint: mean tumor weight, dose: 17.0 mg/kg/injection, schedule: Q01DX011 (ip), vehicle: saline, higher = larger tumour): 93 % of control
- T/C (endpoint: mean tumor weight, dose: 25.0 mg/kg/injection, schedule: Q01DX011 (ip), vehicle: saline, higher = larger tumour): 69 % of control
- T/C (endpoint: mean tumor weight, dose: 38.0 mg/kg/injection, schedule: Q01DX011 (ip), vehicle: saline, higher = larger tumour): 38 % of control
- T/C (endpoint: mean tumor weight, dose: 76.0 mg/kg/injection, schedule: Q01DX011 (ip), vehicle: saline, higher = larger tumour): 52 % of control

SMILES: Clc1ncnc2c1ncn2C1CCCO1 (centres undefined)
- T/C (endpoint: mean tumor weight, dose: 25.0 mg/kg/injection, schedule: Q01DX011 (ip), vehicle: other, higher = larger tumour): 91 % of control
- T/C (endpoint: mean tumor weight, dose: 50.0 mg/kg/injection, schedule: Q01DX011 (ip), vehicle: other, higher = larger tumour): 108 % of control
- T/C (endpoint: mean tumor weight, dose: 100.0 mg/kg/injection, schedule: Q01DX011 (ip), vehicle: other, higher = larger tumour): 81 % of control
- T/C (endpoint: mean tumor weight, dose: 200.0 mg/kg/injection, schedule: Q01DX011 (ip), vehicle: other, higher = larger tumour): 51 % of control and 62 % of control
- T/C (endpoint: mean tumor weight, dose: 400.0 mg/kg/injection, schedule: Q01DX011 (ip), vehicle: other, higher = larger tumour): 57 % of control
- T/C (endpoint: mean tumor weight, dose: 600.0 mg/kg/injection, schedule: Q01DX011 (ip), vehicle: other, higher = larger tumour): 42 % of control

SMILES: CCSC(=O)N1c2ccc(OC)cc2C=CC1C#N (centres undefined)
- T/C (endpoint: median survival time, dose: 100.0 mg/kg/injection, schedule: Q01DX009 (ip), vehicle: saline with Tween-80, higher = longer survival): 122 % of control
- T/C (endpoint: median survival time, dose: 200.0 mg/kg/injection, schedule: Q01DX009 (ip), vehicle: saline with Tween-80, higher = longer survival): 102 % of control
- T/C (endpoint: median survival time, dose: 400.0 mg/kg/injection, schedule: Q01DX009 (ip), vehicle: saline with Tween-80, higher = longer survival): 108 % of control

SMILES: CC(C)=CCC/C(C)=C/CNCCc1c[nH]c2ccccc12
- T/C (endpoint: median survival time, dose: 6.25 mg/kg/injection, schedule: Q01DX009 (ip), vehicle: Klucel (hydroxypropylcellulose) (HPC), higher = longer survival): 100 % of control
- T/C [1]: 101 % of control
- T/C [2]: 97 % of control
